# Laboratory results from US8710055B2, “Triazolylphenyl sulfonamides as serine/threonine kinase inhibitors” (Boehringer Ingelheim International GmbH, priority 2010, dated 2014).
# System: SK-MEL-28 cells (B-RAF V600E mutated)
# Assay: Inhibition of the proliferation of cultivated human melanoma cells (SK-MEL-28), AlamarBlue
# Type: cell-based
# Details: 72 h incubation
# Protocol: Measurement of the Inhibition of the Proliferation of Cultivated Human Melanoma Cells (SK-MEL-28, B-RAF^[…] Mutated)
# For measuring the proliferation of cultivated human tumour cells, cells of the melanoma cell line SK-MEL-28 [from American Type Culture Collection (ATCC)] are cultivated in MEM medium, supplemented with 10% foetal calf serum, 2% sodium bicarbonate, 1 mM sodium pyruvate, 1% non-essential amino acids (e.g. from Cambrex, # BE13-114E) and 2 mM glutamine. SK-MEL-28 cells are placed in 96-well flat bottomed dishes in a density of 2500 cells per well in supplemented MEM medium (see above) and incubated overnight in an incubator (at 37° C. and 5% CO2). The active substances are added to the cells in different concentrations, so that a concentration range of 50 μM to 3.2 nM is covered. If necessary the initial concentration of 50 μM is changed to 10 μM or 2 μM and further dilution is carried out accordingly (up to 0.6 nM or 0.12 nM). After an incubation period of a further 72 h 20 μL AlamarBlue reagent (Serotec Ltd., # BUF012B) are added to each well and the cells are incubated for a further 3-6 h. The colour change of the AlamarBlue reagent is determined in a fluorescence spectrophotometer (e.g. Gemini, Molecular Devices). EC50 values are calculated using a software program (GraphPadPrizm).
row,Structure (SMILES),EC50
1,C#CCN1CCN(c2cncc(-c3cn(-c4c(F)ccc(NS(=O)(=O)c5ccoc5)c4Cl)nn3)c2)CC1 [Example I-72],10 nM
2,C#CCN1CCN(c2cncc(-c3cn(-c4c(F)ccc(NS(=O)(=O)CCC)c4Cl)nn3)c2)CC1 [Example I-73],44 nM

# The next lines start with the values.
row,EC50,Structure (SMILES)
1,5 nM,CCN1CCN(c2cncc(-c3cn(-c4c(F)ccc(NS(=O)(=O)c5ccoc5)c4Cl)nn3)c2)CC1 [Example I-74]
2,273 nM,CCCS(=O)(=O)Nc1ccc(F)c(-n2cc(-c3cncc(OC)c3)nn2)c1Cl [Example I-75]
3,65 nM,CCCS(=O)(=O)Nc1ccc(F)c(-n2cc(-c3cncc(N4CCN(C(C)(C)C)CC4)c3)nn2)c1Cl [Example I-76]
